The source of these data is patent US10383880B2 (Reset Therapeutics, Inc., priority 2012, dated 2019).

This experiment concerns Per2-dLuc U2OS reporter cells. Put plainly: Per2 assay for evaluating the potency of test compounds (high-throughput circadian assay). It counts as cell-based. The note with it: stable U2OS reporter cells harboring Per2-dLuc, luminescence monitored over 4-5 days at 35° C. Here is the method:
Compounds were screened by using a high-throughput circadian assay system as previously described in Zhang, E. E. et al. Cell, 2009, 139, 199-210. In brief, stable U2OS reporter cells harboring Per2-dLuc were plated at a density of 8,000 cells/well in Corning 96-well, solid white, flat bottom, TC-treated microplates (Corning®), and incubated for 24 hours at 37° C. in the presence of 5% CO2. The cells were then synchronized by serum shock by media exchange to a minimal explant media (10 mM HEPES (pH 7.0), 2% B27, 1×PSG (Invitrogen®), and 1.0 mM beetle luciferin (Promega®)) followed by the addition of the compounds of formula I dissolved in dimethylsulfoxide (0.5% final dimethylsulfoxide concentration). Gene expression was monitored by measuring luminescence (TecanR M200) over 4-5 days at 35° C. The period, amplitude, and phase of the associated circadian rhythms were determined using Multicycle™ software (Actimetrics, Inc). EC50 values of the compounds of formula I were calculated using Graphpad™ (Prism®).

For `O=S(=O)(C1CCCCC1)N(Cc1ccco1)CC(O)Cn1c2ccccc2c2ccccc21` (centres unmarked) [Compound 84, N-(3-(9H-Carbazol-9-yl)-2-hydroxypropyl)-N-(furan-2-ylmethyl)cyclohexanesulfonamide], where the note is “Homo sapiens, U2OS”, a half-maximal response (EC50) required 892 nM.
Still for that read-out and setting: with `CS(=O)(=O)N(CC(O)Cn1c2ccccc2c2ccccc21)C1CCc2ccccc21` (single isomer, unassigned) [Compound 61, N-(3-(9H-Carbazol-9-yl)-2-hydroxypropyl)-N-(2,3-dihydro-1H-inden-1-yl)methanesulfonamide] the figure was 4470 nM; with `CC1(N(CC(O)Cn2c3ccccc3c3ccccc32)S(C)(=O)=O)CCCC1` (centres unmarked) [Compound 143, N-(3-(9H-Carbazol-9-yl)-2-hydroxypropyl)-N-(1-methylcyclopentyl)methanesulfonamide], 28 nM; with `CS(=O)(=O)N(Cc1ccccc1F)CC(O)Cn1c2ccccc2c2ccccc21` (centres unmarked) [Compound 68, N-(3-(9H-Carbazol-9-yl)-2-hydroxypropyl)-N-(2-fluorobenzyl)methanesulfonamide], 1990 nM.
The same measure, in the same setting: the result for `COC1CCCC(N(CC(O)Cn2c3ccc(F)cc3c3cc(F)ccc32)S(C)(=O)=O)C1` (centres unmarked) [Compound 198, N-(3-(3,6-Difluoro-9H-carbazol-9-yl)-2-hydroxypropyl)-N-(3-methoxycyclohexyl)methanesulfonamide] reads 1230 nM; that for `CS(=O)(=O)N(CC(O)Cn1c2ccc(F)cc2c2cc(F)ccc21)C1CCC1` (centres unmarked) [Compound 119, N-Cyclobutyl-N-(3-(3,6-difluoro-9H-carbazol-9-yl)-2-hydroxypropyl)methanesulfonamide], 37 nM; that for `CC1CN(CC(C)(O)Cn2c3ccc(F)cc3c3cc(F)ccc32)S(=O)(=O)C1` (centres unmarked) [Compound 195, 2-(3-(3,6-Difluoro-9H-carbazol-9-yl)-2-hydroxy-2-methylpropyl)-4-methylisothiazolidine-1,1-dioxide], 254 nM.
The same measure, in the same setting: with `COC1CCS(=O)(=O)N(CC(O)Cn2c3ccc(F)cc3c3cc(F)ccc32)C1` (centres unmarked) [Compound 155, N-(3-(3,6-Difluoro-9H-carbazol-9-yl)-2-hydroxypropyl)-4-methoxy-1,2-thiazinane-1,1-dioxide] the figure was 324 nM.
Consider `O=S1(=O)C(F)CCN1CC(O)Cn1c2ccccc2c2ccccc21` (centres unmarked) [Compound 120, 2-(3-(9H-Carbazol-9-yl)-2-hydroxypropyl)-5-fluoro-isothiazolidine-1,1-dioxide], for which, for the setting “Homo sapiens, U2OS”, the EC50 (as a rule, the concentration needed to bring the measured effect to its halfway point) was determined as 23 nM.
Same read-out and setting: the result for `CS(=O)(=O)N(CC(O)Cn1c2ccccc2c2ccccc21)c1ccc2cn[nH]c2c1` (centres unmarked) [Compound 78, N-(3-(9H-Carbazol-9-yl)-2-hydroxypropyl)-N-(1H-indazol-6-yl)methanesulfonamide] reads 6350 nM; that for `CCS(=O)(=O)N(Cc1ccco1)CC(O)Cn1c2ccccc2c2ccccc21` (centres unmarked) [Compound 2, N-(3-(9H-Carbazol-9-yl)-2-hydroxypropyl)-N-(furan-2-ylmethyl)ethanesulfonamide], 742 nM.
Turning to `CC1CCCC1N(CC(O)Cn1c2ccc(F)cc2c2cc(F)ccc21)S(C)(=O)=O` (single isomer, unassigned) [Compound 193C, N-(3-(3,6-Difluoro-9H-carbazol-9-yl)-2-hydroxypropyl)-N-(2-methylcyclopentyl)methanesulfonamide], a half-maximal effect (EC50) was put at 4470 nM.
Where the note is “Homo sapiens, U2OS”, `COC(=O)N1CCC(N(CC(O)Cn2c3ccccc3c3ccccc32)S(C)(=O)=O)CC1` (centres unmarked) [Compound 129, Methyl 4-(N-(3-(9H-carbazol-9-yl)-2-hydroxypropyl)methylsulfonamido)piperidine-1-carboxylate] yielded an EC50 of 386 nM.
On the same count and under the same terms, the result for `O=S1(=O)CCCCN1C[C@@H](O)Cn1c2ccccc2c2ccccc21` [Compound 38, (S)-N-(3-(9H-Carbazol-9-yl)-2-hydroxypropyl)-1,2-thiazinane 1,1-dioxide] reads 11 nM; that for `O=S1(=O)N(CC(O)Cn2c3ccc(F)cc3c3cc(F)ccc32)CCN1C1CCCC1` (centres unmarked) [Compound 231], 1500 nM.
For the molecule `CS(=O)(=O)N(CC(O)Cn1c2ccccc2c2ccccc21)c1ccc(F)cc1` (centres unmarked) [Compound 24, N-(3-(9H-Carbazol-9-yl)-2-hydroxypropyl)-N-(4-fluorophenyl)methanesulfonamide], it took 210 nM to reach a half-maximal effect (Homo sapiens, U2OS) (EC50).
Molecule `CC(C)(N(CC(O)Cn1c2ccccc2c2ccccc21)S(C)(=O)=O)C(F)(F)F` (centres unmarked) [Compound 148, N-(3-(9H-Carbazol-9-yl)-2-hydroxypropyl)-N-(1,1,1-trifluoro-2-methylpropan-2-yl)methanesulfonamide] showed a 50% effective concentration (EC50) (Homo sapiens, U2OS) of 489 nM.
On the same count and under the same terms, the result for `CS(=O)(=O)N(CC(O)Cn1c2ccccc2c2ccccc21)c1ccon1` (centres unmarked) [Compound 81, N-(3-(9H-Carbazol-9-yl)-2-hydroxypropyl)-N-(isoxazol-3-yl)methanesulfonamide] reads 964 nM.
Same read-out and setting: the result for `COCCS(=O)(=O)N(Cc1ccco1)CC(O)Cn1c2ccccc2c2ccccc21` (centres unmarked) [Compound 11, N-(3-(9H-Carbazol-9-yl)-2-hydroxypropyl)-N-(furan-2-ylmethyl)-2-methoxyethanesulfonamide] reads 1790 nM.
On the same count and under the same terms, with `O=S1(=O)CCCN1C[C@@H](O)Cn1c2ccccc2c2ccccc21` [Compound 39, (S)-N-(3-(9H-Carbazol-9-yl)-2-hydroxypropyl)isothiazolidine 1,1-dioxide] the figure was 21 nM.
Where the note is “Homo sapiens, U2OS”, `CC(O)(CN(C1CCC1)S(C)(=O)=O)Cn1c2ccc(F)cc2c2cc(F)ccc21` (centres unmarked) [Compound 149, N-Cyclobutyl-N-(3-(3,6-difluoro-9H-carbazol-9-yl)-2-hydroxy-2-methylpropyl)methanesulfonamide] had an EC50 of 7620 nM.
The same measure, in the same setting: the result for `CS(=O)(=O)N(CC(O)Cn1c2ccccc2c2ccccc21)c1cccc(C#N)c1` (centres unmarked) [Compound 72, N-(3-(9H-Carbazol-9-yl)-2-hydroxypropyl)-N-(3-cyanophenyl)methanesulfonamide] reads 2580 nM; that for `CS(=O)(=O)N(CC(O)Cn1c2ccc(F)cc2c2cc(F)ccc21)c1ccc(-n2cccn2)cc1` (centres unmarked) [Compound 213, N-(4-(1H-Pyrazol-1-yl)phenyl)-N-(3-(3,6-difluoro-9H-carbazol-9-yl)-2-hydroxypropyl)methanesulfonamide], 2950 nM.
`CS(=O)(=O)NCC(O)Cn1c2ccc(F)cc2c2cc(F)ccc21` (centres unmarked) [Compound 154, N-(3-(3,6-Difluoro-9H-carbazol-9-yl)-2-hydroxypropyl)methanesulfonamide] gave a 50% effective concentration (EC50) (Homo sapiens, U2OS) of 680 nM.
Still for that read-out and setting: the result for `CC(O)(CN(C1(C)CCCC1)S(C)(=O)=O)Cn1c2ccc(F)cc2c2cc(F)ccc21` (centres unmarked) [Compound 197, N-(3-(3,6-Difluoro-9H-carbazol-9-yl)-2-hydroxy-2-methylpropyl)-N-(1-methylcyclopentyl)methanesulfonamide] reads 873 nM; that for `CCN(CC(O)Cn1c2cc(F)ccc2c2ccc(F)cc21)S(C)(=O)=O` (centres unmarked) [Compound 158, N-(3-(2,7-Difluoro-9H-carbazol-9-yl)-2-hydroxypropyl)-N-ethylmethanesulfonamide], 811 nM; that for `CN(CC(O)Cn1c2ccc(F)cc2c2ccc(F)cc21)S(C)(=O)=O` (centres unmarked) [Compound 103, N-(3-(2,6-Difluoro-9H-carbazol-9-yl)-2-hydroxypropyl)-N-methylmethanesulfonamide], 2210 nM.
Consider `CCc1ccc(N(CC(O)Cn2c3ccc(F)cc3c3cc(F)ccc32)S(C)(=O)=O)cc1` (centres unmarked) [Compound 201, N-(3-(3,6-Difluoro-9H-carbazol-9-yl)-2-hydroxypropyl)-N-(4-ethylphenyl)methanesulfonamide], for which the EC50 (Homo sapiens, U2OS) was 1570 nM.
Take `CS(=O)(=O)N(Cc1ccco1)CC(O)Cn1c2cc(F)ccc2c2ccc(F)cc21` (centres unmarked) [Compound 93, N-(3-(2,7-Difluoro-9H-carbazol-9-yl)-2-hydroxypropyl)-N-(furan-2-ylmethyl)methanesulfonamide]: where the note is “Homo sapiens, U2OS”, a half-maximal effect (EC50) was put at 2890 nM.
Still for that read-out and setting: the result for `CS(=O)(=O)N(CC(O)Cn1c2ccc(F)cc2c2ccc(F)cc21)C1CCC1` (centres unmarked) [Compound 166, N-Cyclobutyl-N-(3-(2,6-difluoro-9H-carbazol-9-yl)-2-hydroxypropyl)methanesulfonamide] reads 147 nM.
On the same count and under the same terms, with `O=S1(=O)CCCN1CC(O)Cn1c2cccc(F)c2c2c(F)cccc21` (centres unmarked) [Compound 106, N-(3-(4,5-Difluoro-9H-carbazol-9-yl)-2-hydroxypropyl)-isothiazolidine-1,1-dioxide] the figure was 8600 nM; with `CS(=O)(=O)N(Cc1ccco1)CC(O)Cn1c2ccc(F)cc2c2c(F)cccc21` (centres unmarked) [Compound 109, N-(3-(3,5-Difluoro-9H-carbazol-9-yl)-2-hydroxypropyl)-N-(furan-2-ylmethyl)methanesulfonamide], 7420 nM; with `CS(=O)(=O)N(CC(O)Cn1c2ccccc2c2ccccc21)c1ccc(Br)cc1` (centres unmarked) [Compound 28, N-(3-(9H-Carbazol-9-yl)-2-hydroxypropyl)-N-(4-bromophenyl)methanesulfonamide], 2090 nM.
The same measure, in the same setting: with `CCN(CC(O)Cn1c2ccc(F)cc2c2cc(F)ccc21)S(C)(=O)=O` (centres unmarked) [Compound 156, N-(3-(3,6-ifluoro-9H-carbazol-9-yl)-2-hydroxypropyl)-N-ethylmethanesulfonamide] the figure was 471 nM; with `CS(=O)(=O)N(CC(O)Cn1c2ccccc2c2ccccc21)C1CCC(F)(F)CC1` (centres unmarked) [Compound 128, N-(3-(9H-Carbazol-9-yl)-2-hydroxypropyl)-N-(4,4-difluorocyclohexyl)methanesulfonamide], 372 nM.
